{
  "source": "patent US20070021434A1",
  "about": "“NON-NUCLEOSIDE ANTI-HEPACIVIRUS AGENTS AND USES THEREOF” (Migenix Inc., priority 2005, published 2007)",
  "data": [
    {"target": "HCV RdRp (NS5B) (UniProt P26663)", "sequence (P26663 whole entry, looked up)": "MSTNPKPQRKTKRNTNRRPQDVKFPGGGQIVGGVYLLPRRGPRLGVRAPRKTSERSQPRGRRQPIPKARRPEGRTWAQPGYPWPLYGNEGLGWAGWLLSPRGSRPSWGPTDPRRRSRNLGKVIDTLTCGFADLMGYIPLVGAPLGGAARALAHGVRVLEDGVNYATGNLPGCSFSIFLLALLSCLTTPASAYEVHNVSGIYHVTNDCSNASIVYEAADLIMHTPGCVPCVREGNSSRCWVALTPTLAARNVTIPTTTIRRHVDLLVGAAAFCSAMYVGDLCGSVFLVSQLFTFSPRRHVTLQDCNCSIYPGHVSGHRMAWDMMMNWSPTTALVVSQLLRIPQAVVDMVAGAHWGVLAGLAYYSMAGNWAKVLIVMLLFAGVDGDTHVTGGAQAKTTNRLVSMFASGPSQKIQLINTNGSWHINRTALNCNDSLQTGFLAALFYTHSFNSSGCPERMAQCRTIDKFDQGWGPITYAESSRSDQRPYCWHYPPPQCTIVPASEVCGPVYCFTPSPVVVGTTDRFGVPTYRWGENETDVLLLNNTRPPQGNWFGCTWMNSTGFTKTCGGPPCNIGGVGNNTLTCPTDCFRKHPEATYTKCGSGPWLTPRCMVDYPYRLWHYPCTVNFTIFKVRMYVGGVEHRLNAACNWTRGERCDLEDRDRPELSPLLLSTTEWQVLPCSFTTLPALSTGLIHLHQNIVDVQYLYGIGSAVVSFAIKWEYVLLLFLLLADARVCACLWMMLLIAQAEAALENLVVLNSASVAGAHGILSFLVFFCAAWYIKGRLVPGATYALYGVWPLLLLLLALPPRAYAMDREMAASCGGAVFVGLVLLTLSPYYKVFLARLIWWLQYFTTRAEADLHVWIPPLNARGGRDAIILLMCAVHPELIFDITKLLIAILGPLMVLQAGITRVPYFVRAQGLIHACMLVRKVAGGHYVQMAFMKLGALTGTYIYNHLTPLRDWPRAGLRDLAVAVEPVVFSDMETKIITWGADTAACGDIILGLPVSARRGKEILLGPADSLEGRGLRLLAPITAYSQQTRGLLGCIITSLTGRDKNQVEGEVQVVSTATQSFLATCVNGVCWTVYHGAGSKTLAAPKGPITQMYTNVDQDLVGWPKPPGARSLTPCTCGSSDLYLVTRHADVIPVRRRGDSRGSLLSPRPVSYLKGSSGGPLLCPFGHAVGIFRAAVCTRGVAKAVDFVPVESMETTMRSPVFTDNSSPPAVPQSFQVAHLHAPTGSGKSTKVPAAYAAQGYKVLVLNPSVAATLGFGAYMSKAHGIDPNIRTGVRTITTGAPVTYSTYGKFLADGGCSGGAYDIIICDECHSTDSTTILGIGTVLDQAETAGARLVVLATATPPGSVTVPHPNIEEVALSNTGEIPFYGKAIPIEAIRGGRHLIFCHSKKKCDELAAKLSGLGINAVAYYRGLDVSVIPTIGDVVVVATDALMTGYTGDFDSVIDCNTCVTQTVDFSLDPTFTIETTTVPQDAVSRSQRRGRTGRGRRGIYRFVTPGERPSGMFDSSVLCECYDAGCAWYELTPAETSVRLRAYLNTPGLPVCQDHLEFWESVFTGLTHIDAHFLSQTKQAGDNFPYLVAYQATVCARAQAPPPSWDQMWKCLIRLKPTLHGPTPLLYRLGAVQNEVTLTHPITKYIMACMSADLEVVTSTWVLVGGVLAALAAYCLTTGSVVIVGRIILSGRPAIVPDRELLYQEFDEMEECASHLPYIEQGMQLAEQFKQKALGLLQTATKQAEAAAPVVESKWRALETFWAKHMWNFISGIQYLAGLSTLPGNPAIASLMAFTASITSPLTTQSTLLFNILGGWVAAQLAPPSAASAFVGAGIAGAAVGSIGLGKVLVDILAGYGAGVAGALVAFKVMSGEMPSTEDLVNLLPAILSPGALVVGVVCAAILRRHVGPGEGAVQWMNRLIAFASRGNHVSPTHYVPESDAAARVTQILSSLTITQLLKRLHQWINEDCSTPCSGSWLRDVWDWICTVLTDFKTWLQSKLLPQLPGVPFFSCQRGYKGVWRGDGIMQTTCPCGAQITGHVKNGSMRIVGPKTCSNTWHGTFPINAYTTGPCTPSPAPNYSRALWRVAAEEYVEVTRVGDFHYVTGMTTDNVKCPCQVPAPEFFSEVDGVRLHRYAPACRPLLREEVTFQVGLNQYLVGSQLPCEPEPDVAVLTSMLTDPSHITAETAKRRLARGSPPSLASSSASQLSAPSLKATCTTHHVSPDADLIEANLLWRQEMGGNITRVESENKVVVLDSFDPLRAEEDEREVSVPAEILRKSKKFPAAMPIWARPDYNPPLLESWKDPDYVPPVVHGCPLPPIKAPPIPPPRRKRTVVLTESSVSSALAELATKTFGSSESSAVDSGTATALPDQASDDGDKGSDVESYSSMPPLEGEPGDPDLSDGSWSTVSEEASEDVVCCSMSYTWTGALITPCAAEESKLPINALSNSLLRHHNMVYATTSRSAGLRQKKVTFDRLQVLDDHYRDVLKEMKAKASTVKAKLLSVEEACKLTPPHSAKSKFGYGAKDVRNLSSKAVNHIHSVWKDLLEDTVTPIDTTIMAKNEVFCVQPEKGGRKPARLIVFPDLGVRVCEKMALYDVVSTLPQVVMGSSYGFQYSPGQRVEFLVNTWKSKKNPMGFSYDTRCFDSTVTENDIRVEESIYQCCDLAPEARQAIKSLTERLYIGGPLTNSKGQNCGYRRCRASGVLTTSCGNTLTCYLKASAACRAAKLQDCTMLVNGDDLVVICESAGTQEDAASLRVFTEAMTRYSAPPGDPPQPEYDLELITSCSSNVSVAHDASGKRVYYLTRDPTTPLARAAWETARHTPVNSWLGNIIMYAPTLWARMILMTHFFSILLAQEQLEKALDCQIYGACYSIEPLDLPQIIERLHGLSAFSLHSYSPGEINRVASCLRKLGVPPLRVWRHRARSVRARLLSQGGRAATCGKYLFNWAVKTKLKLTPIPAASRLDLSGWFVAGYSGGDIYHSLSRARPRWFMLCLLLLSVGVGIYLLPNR", "type": "biochemical, hepatitis C virus", "units": {"IC50": "µM"}, "values": [
      {"smiles": "Cc1ccc(NC(=O)CN(CCCCN)C(=O)Nc2ccc(OCc3ccccc3)cc2)cc1", "note": "[Compound 278, 2-[1-(4-AMINO-BUTYL)-3-(4-BENZYLOXY-PHENYL)-UREIDO]-N-P-TOLYL-ACETAMIDE]", "IC50": "10 to 50"},
      {"smiles": "NCCCC[C@H](NC(=O)Nc1ccc(OCc2ccccc2)cc1)C(=O)N1CCCCC1", "note": "[Compound 290, (S)-1-[5-AMINO-1-(PIPERIDINE-1-CARBONYL)-PENTYL]-3-(4-BENZYLOXY-PHENYL)-UREA]", "IC50": "> 50"},
      {"smiles": "COc1ccc(C[C@H](N)C(=O)Nc2ccc(CN(C(=O)c3ccco3)C3CCCCC3)cc2)cc1", "note": "[Compound 9, (S)-FURAN-2-CARBOXYLIC ACID {4-[2-AMINO-3-(4-METHOXY-PHENYL)-PROPIONYLAMINO]-BENZYL}-CYCLOHEXYL-AMIDE]", "IC50": "> 50"},
      {"smiles": "Cc1ccc(NC(=O)[C@H](CCCCN)NC(=O)Nc2ccc(OCc3ccccc3)c(Cl)c2)cc1", "note": "[Compound 253, (S)-6-AMINO-2-[3-(4-BENZYLOXY-3-CHLORO-PHENYL)-UREIDO]-HEXANOIC ACID P-TOLYLAMIDE]", "IC50": "10 to 50"},
      {"smiles": "NCCCC[C@H](NC(=O)Nc1ccc(OCc2ccccc2)cc1)C(=O)Nc1ccc(-n2ccnc2)cc1", "note": "[Compound 317, (S)-6-AMINO-2-[3-(4-BENZYLOXY-PHENYL)-UREIDO]-HEXANOIC ACID (4-IMIDAZOL-1-YL-PHENYL)-AMIDE]", "IC50": "> 50"},
      {"smiles": "Cc1ccc(NC(=O)CC2CNCCN2C(=O)OCC2c3ccccc3-c3ccccc32)cc1", "note": "(stereo not shown) [Compound 197, 2-(P-TOLYLCARBAMOYL-METHYL)-PIPERAZINE-1-CARBOXYLIC ACID 9H-FLUOREN-9-YLMETHYL ESTER]", "IC50": "> 50"},
      {"smiles": "Cc1ccc(NC(=O)[C@H](CCCCN)NS(=O)(=O)c2cc(Cl)cc(Cl)c2)cc1", "note": "[Compound 394, (S)-6-AMINO-2-(3,5-DICHLORO-BENZENESULFONYLAMINO)-HEXANOIC ACID P-TOLYLAMIDE]", "IC50": "> 50"},
      {"smiles": "Cc1ccc(NC(=O)C(CCCCN)NC(=O)Nc2ccc(C=Cc3ccccc3)cc2)cc1", "note": "[Compound 236, (S)-6-AMINO-2-[3-(4-STYRYL-PHENYL)-UREIDO]-HEXANOIC ACID P-TOLYLAMIDE]", "IC50": "< 10"},
      {"smiles": "Cc1ccc(NC(=O)C(CCCCN)NC(=O)CCc2c[nH]c3ccccc23)cc1", "note": "[Compound 89, (S)-6-AMINO-2-(3-1H-INDOL-3-YL-PROPIONYLAMINO)-HEXANOIC ACID P-TOLYLAMIDE]", "IC50": "> 50"},
      {"smiles": "CSCCC(NC(=O)OCC1c2ccccc2-c2ccccc21)C(=O)Nc1ccc(C)cc1", "note": "(stereo not shown) [Compound 383]", "IC50": "> 50"},
      {"smiles": "NCCC[C@H](NC(=O)OCC1c2ccccc2-c2ccccc21)C(=O)Nc1ccc(C2CCCCC2)cc1", "note": "[Compound 200, (S)-[4-AMINO-1-(4-CYCLOHEXYL-PHENYLCARBAMOYL)-BUTYL]-CARBAMIC ACID 9H-FLUOREN-9-YLMETHYL ESTER]", "IC50": "< 10"},
      {"smiles": "O=CNCCCC[C@H](NC(=O)OCC1c2ccccc2-c2ccccc21)C(=O)Nc1ccc(Cl)c(Cl)c1", "note": "[Compound 217, (S)-[1-(3,4-DICHLORO-PHENYLCARBAMOYL)-5-FORMYLAMINO-PENTYL]-CARBAMIC ACID 9H-FLUOREN-9-YLMETHYL ESTER]", "IC50": "10 to 50"},
      {"smiles": "Cc1ccc(NC(=O)[C@H](CCCCN)NC(=O)CNCc2ccccc2)cc1", "note": "[Compound 337, (S)-6-AMINO-2-(2-BENZYLAMINO-ACETYLAMINO)-HEXANOIC ACID P-TOLYLAMIDE]", "IC50": "> 50"},
      {"smiles": "Cc1ccc(NC(=O)[C@H](CCCCN)NC(=O)Nc2ccc(OCc3ccccc3F)cc2)cc1", "note": "[Compound 248, (S)-6-AMINO-2-{3-[4-(2-FLUORO-BENZYLOXY)-PHENYL]-UREIDO}-HEXANOIC ACID P-TOLYLAMIDE]", "IC50": "10 to 50"},
      {"smiles": "Cc1cc2cc(NC(=O)CN(CCCCN)C(=O)OCC3c4ccccc4-c4ccccc43)ccc2[nH]1", "note": "[Compound 295, (4-AMINO-BUTYL)-[(2-METHYL-1H-INDOL-5-YLCARBAMOYL)-METHYL]-CARBAMIC ACID 9H-FLUOREN-9-YLMETHYL ESTER]", "IC50": "< 10"},
      {"smiles": "Cc1ccc(NC(=O)C(Cc2c[nH]c3ccccc23)NC(=O)OCC2c3ccccc3-c3ccccc32)cc1", "note": "[Compound 378, (S)-[2-(1H-INDOL-3-YL)-1-P-TOLYLCARBAMOYL-ETHYL]-CARBAMIC ACID 9H-FLUOREN-9-YLMETHYL ESTER]", "IC50": "> 50"},
      {"smiles": "COC(=O)c1cccc(COc2ccc(NC(=O)NC(CCCCN)C(=O)Nc3ccc(C)cc3)cc2)c1", "note": "[Compound 276, (S)-3-{4-[3-(5-AMINO-1-P-TOLYLCARBAMOYL-PENTYL)-UREIDO]-PHENOXYMETHYL}-BENZOIC ACID METHYL ESTER]", "IC50": "10 to 50"},
      {"smiles": "Cc1ccc(NC(=O)[C@H](CCCCN)NC(=O)Nc2ccc(OCc3cc(F)ccc3F)cc2)cc1", "note": "[Compound 286, (S)-6-AMINO-2-{3-[4-(2,5-DIFLUORO-BENZYLOXY)-PHENYL]-UREIDO}-HEXANOIC ACID P-TOLYLAMIDE]", "IC50": "< 10"},
      {"smiles": "Cc1ccc(NC(=O)C(CCCN)NC(=O)OCC2c3ccccc3-c3ccccc32)cc1", "note": "[Compound 102, (R)-(4-AMINO-1-P-TOLYLCARBAMOYL-BUTYL)-CARBAMIC ACID 9H-FLUOREN-9-YLMETHYL ESTER]", "IC50": "> 50"},
      {"smiles": "Cc1ccc(NC(=O)C(CCCCN)NC(=O)c2ccc(F)c3ccccc23)cc1", "note": "[Compound 64, (S)-4-FLUORO-NAPHTHALENE-1-CARBOXYLIC ACID (5-AMINO-1-P-TOLYLCARBAMOYL-PENTYL)-AMIDE]", "IC50": "> 50"},
      {"smiles": "Cc1cc2cc(NC(=O)[C@H](CCCNC(=O)CN)NC(=O)Nc3ccc(OCc4ccccc4)cc3)ccc2[nH]1", "note": "[Compound 296, (S)-5-(2-AMINO-ACETYLAMINO)-2-[3-(4-BENZYLOXY-PHENYL)-UREIDO]-PENTANOIC ACID (2-METHYL-1H-INDOL-5-YL)-AMIDE]", "IC50": "10 to 50"},
      {"smiles": "Cc1ccc(NC(=O)[C@H](CCCNC(=O)CN)NC(=O)Nc2ccc(OCc3ccccc3)cc2)cc1", "note": "[Compound 322, (S)-5-(2-AMINO-ACETYLAMINO)-2-[3-(4-BENZYLOXY-PHENYL)-UREIDO]-PENTANOIC ACID P-TOLYLAMIDE]", "IC50": "10 to 50"},
      {"smiles": "Cc1ccc(NC(=O)[C@H](CCCCN)NS(=O)(=O)c2cc(Cl)sc2Cl)cc1", "note": "[Compound 395, (S)-6-AMINO-2-(2,5-DICHLORO-THIOPHENE-3-SULFONYLAMINO)-HEXANOIC ACID P-TOLYLAMIDE]", "IC50": "> 50"},
      {"smiles": "Cc1ccc(NC(=O)C(CCCCN)NC(=O)NC(C)c2cccc3ccccc23)cc1", "note": "[Compound 97, (S,S)-6-AMINO-2-[3-(1-NAPHTHALEN-1-YL-ETHYL)-UREIDO]-HEXANOIC ACID P-TOLYLAMIDE]", "IC50": "> 50"},
      {"smiles": "NCCCC[C@H](NC(=O)Nc1ccc2c(c1)Cc1ccccc1-2)C(=O)Nc1ccc(C2CCCCC2)cc1", "note": "[Compound 226, (S)-6-AMINO-2-[3-(9H-FLUOREN-2-YL)-UREIDO]-HEXANOIC ACID (4-CYCLOHEXYL-PHENYL)-AMIDE]", "IC50": "> 50"},
      {"smiles": "Cc1ccc(NC(=O)C(N)CNC(=O)OCC2c3ccccc3-c3ccccc32)cc1", "note": "[Compound 84, (R)-(2-AMINO-2-P-TOLYLCARBAMOYL-ETHYL)-CARBAMIC ACID 9H-FLUOREN-9-YLMETHYL ESTER]", "IC50": "> 50"},
      {"smiles": "Cc1ccc(NC(=O)C(CCCCN)NC(=O)Nc2cccc(Cc3ccccc3)c2)cc1", "note": "[Compound 212, (S)-6-AMINO-2-[3-(3-BENZYL-PHENYL)-UREIDO]-HEXANOIC ACID P-TOLYLAMIDE]", "IC50": "10 to 50"},
      {"smiles": "Cc1ccc(NC(=O)C(CCCCN)NC(=O)c2ccccc2-c2ccccc2)cc1", "note": "[Compound 54, (S)-BIPHENYL-2-CARBOXYLIC ACID (5-AMINO-1-P-TOLYLCARBAMOYL-PENTYL)-AMIDE]", "IC50": "> 50"},
      {"smiles": "Cc1ccc(NC(=O)C(CCN)NC(=O)OCC2c3ccccc3-c3ccccc32)cc1", "note": "[Compound 400, (R)-(3-AMINO-1-P-TOLYLCARBAMOYL-PROPYL)-CARBAMIC ACID 9H-FLUOREN-9-YLMETHYL ESTER]", "IC50": "> 50"},
      {"smiles": "Cc1cc2cc(NC(=O)[C@H](CCNC(=O)CN)NC(=O)Nc3ccc(OCc4ccccc4)cc3)ccc2[nH]1", "note": "[Compound 241, (S)-4-(2-AMINO-ACETYLAMINO)-2-[3-(4-BENZYLOXY-PHENYL)-UREIDO]-N-(2-METHYL-1H-INDOL-5-YL)-BUTYRAMIDE]", "IC50": "< 10"},
      {"smiles": "Cc1ccc(NC(=O)C(CCCCN)NC(=O)Nc2ccc(C(=O)c3ccccc3)cc2)cc1", "note": "[Compound 75, (S)-6-AMINO-2-[3-(4-BENZOYL-PHENYL)-UREIDO]-HEXANOIC ACID P-TOLYLAMIDE]", "IC50": "> 50"},
      {"smiles": "Cc1ccc(NC(=O)[C@H](CCCCN)NC(=O)CNCc2ccccc2F)cc1", "note": "[Compound 344, (S)-6-AMINO-2-[2-(2-FLUORO-BENZYLAMINO)-ACETYLAMINO]-HEXANOIC ACID P-TOLYLAMIDE]", "IC50": "> 50"},
      {"smiles": "Cc1ccc(NC(=O)C2CCCN2C(=O)OCC2c3ccccc3-c3ccccc32)cc1", "note": "[Compound 85, (S)-2-P-TOLYLCARBAMOYL-PYRROLIDINE-1-CARBOXYLIC ACID 9H-FLUOREN-9-YLMETHYL ESTER]", "IC50": "> 50"},
      {"smiles": "Cc1cc2cc(NC(=O)[C@H](CCCNC(=O)CN)NC(=O)OCC3c4ccccc4-c4ccccc43)ccc2[nH]1", "note": "[Compound 238, (S)-[4-(2-AMINO-ACETYLAMINO)-1-(2-METHYL-1H-INDOL-5-YLCARBAMOYL)-BUTYL]-CARBAMIC ACID 9H-FLUOREN-9-YLMETHYL ESTER]", "IC50": "< 10"},
      {"smiles": "N[C@@H](Cc1ccccc1)C(=O)Nc1ccc(CN(C(=O)c2ccco2)C2CCCCC2)cc1", "note": "[Compound 10, (S)-FURAN-2-CARBOXYLIC ACID [4-(2-AMINO-3-PHENYL-PROPIONYLAMINO) -BENZYL]-CYCLOHEXYL-AMIDE]", "IC50": "> 50"},
      {"smiles": "Cc1ccc(NC(=O)CC2CN(C(=O)CCN)CCN2C(=O)OCC2c3ccccc3-c3ccccc32)cc1", "note": "(stereo not shown) [Compound 183, 4-(3-AMINO-PROPIONYL)-2-(P-TOLYLCARBAMOYL-METHYL)-PIPERAZINE-1-CARBOXYLIC ACID 9H-FLUOREN-9-YLMETHYL ESTER]", "IC50": "> 50"},
      {"smiles": "Cc1ccc(NC(=O)C(CCCCN)NC(=O)CC2c3ccccc3-c3ccccc32)cc1", "note": "[Compound 53, (S)-6-AMINO-2-(2-9H-FLUOREN-9-YL-ACETYLAMINO)-HEXANOIC ACID P-TOLYLAMIDE]", "IC50": "> 50"},
      {"smiles": "Cc1ccc(NC(=O)C(CCCCN)NC(=O)c2cccc3ccccc23)cc1", "note": "(stereo not shown) [Compound 79, NAPHTHALENE-1-CARBOXYLIC ACID (5-AMINO-1-P-TOLYLCARBAMOYL-PENTYL)-AMIDE]", "IC50": "> 50"},
      {"smiles": "Cc1ccc(NC(=O)C(CC(=O)O)NC(=O)OCC2c3ccccc3-c3ccccc32)cc1", "note": "[Compound 371, (R)-3-(9H-FLUOREN-9-YLMETHOXYCARBONYLAMINO)-NR-P-TOLYL-[…]]", "IC50": "> 50"},
      {"smiles": "NCCCC[C@@H](NC(=O)NCc1ccccc1)C(=O)Nc1ccc(C2CCCCC2)cc1", "note": "[Compound 141, (R)-6-AMINO-2-(3-BENZYL-UREIDO)-HEXANOIC ACID (4-CYCLOHEXYL-PHENYL)-AMIDE]", "IC50": "< 10"}
    ]}
  ]
}
